Data published in BindingDB's records for PubMed 8093723 (Dainippon Pharmaceutical, 1993).
pKi: −log10 of the molar value.

How the values were obtained:
[1] = target: Histamine H1 receptor (Rattus norvegicus, UniProt P31390)
[2] = target: Beta-2 adrenergic receptor (Rattus norvegicus, UniProt P10608)
[3] = target: D(2) dopamine receptor (Rattus norvegicus, UniProt P61169)
[4] = target: T1, Muscarinic acetylcholine receptor M2 (Rattus norvegicus, UniProt P10980)
T1 sequence (P10980 whole entry): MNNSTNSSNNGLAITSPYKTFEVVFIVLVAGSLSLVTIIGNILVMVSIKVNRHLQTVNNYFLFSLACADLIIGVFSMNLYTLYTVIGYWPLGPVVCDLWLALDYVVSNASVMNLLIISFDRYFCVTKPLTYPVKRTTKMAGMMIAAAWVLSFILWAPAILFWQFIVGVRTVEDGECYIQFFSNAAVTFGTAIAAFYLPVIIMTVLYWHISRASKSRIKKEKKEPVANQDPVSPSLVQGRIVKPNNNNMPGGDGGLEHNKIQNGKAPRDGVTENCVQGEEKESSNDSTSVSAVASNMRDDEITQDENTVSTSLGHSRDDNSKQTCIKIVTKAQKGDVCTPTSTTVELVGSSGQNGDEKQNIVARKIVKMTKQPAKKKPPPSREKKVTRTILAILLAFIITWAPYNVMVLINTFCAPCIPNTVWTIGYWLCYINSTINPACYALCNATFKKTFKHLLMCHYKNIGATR

[5] = target: Gamma-aminobutyric acid receptor subunit alpha-1 (Rattus norvegicus, UniProt P62813)
[6] = target: D(1A) dopamine receptor (Rattus norvegicus, UniProt P18901)
[7] = target: Gamma-aminobutyric acid (GABA) B receptor 1 (Rattus norvegicus, UniProt Q6MFX8)
[8] = target: Sigma non-opioid intracellular receptor 1 (Cavia porcellus, UniProt Q60492)
Chain of Sigma non-opioid intracellular receptor 1 (Q60492 whole entry): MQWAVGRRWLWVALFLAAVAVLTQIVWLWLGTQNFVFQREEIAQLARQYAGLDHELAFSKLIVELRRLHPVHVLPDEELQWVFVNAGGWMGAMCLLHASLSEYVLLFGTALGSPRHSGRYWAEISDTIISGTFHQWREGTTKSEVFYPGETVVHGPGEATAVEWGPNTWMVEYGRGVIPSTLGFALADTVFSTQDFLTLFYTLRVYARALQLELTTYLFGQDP

Chain of D(1A) dopamine receptor (P18901 whole entry): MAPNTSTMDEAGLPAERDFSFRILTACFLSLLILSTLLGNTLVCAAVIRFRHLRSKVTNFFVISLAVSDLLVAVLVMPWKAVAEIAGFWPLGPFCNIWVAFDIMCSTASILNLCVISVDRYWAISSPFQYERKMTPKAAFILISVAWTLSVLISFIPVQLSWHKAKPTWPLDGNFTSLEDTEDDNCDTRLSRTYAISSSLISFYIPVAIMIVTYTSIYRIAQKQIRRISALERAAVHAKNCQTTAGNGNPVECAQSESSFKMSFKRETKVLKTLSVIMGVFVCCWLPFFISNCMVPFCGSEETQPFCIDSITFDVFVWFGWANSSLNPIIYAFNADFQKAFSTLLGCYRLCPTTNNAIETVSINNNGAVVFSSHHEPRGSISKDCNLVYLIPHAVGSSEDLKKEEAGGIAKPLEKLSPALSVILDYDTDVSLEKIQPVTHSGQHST
Chain of Beta-2 adrenergic receptor (P10608 whole entry): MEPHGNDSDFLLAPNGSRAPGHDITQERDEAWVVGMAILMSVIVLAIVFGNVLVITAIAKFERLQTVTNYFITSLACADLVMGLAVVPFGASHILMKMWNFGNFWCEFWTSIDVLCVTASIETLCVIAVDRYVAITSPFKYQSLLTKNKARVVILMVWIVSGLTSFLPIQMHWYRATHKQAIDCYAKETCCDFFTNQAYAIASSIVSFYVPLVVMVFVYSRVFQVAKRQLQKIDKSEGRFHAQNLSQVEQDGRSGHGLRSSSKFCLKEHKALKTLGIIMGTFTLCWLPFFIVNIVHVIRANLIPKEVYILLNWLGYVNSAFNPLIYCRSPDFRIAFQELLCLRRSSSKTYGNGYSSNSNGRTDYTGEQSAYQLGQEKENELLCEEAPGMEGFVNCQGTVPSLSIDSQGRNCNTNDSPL
Chain of Gamma-aminobutyric acid receptor subunit alpha-1 (P62813 whole entry): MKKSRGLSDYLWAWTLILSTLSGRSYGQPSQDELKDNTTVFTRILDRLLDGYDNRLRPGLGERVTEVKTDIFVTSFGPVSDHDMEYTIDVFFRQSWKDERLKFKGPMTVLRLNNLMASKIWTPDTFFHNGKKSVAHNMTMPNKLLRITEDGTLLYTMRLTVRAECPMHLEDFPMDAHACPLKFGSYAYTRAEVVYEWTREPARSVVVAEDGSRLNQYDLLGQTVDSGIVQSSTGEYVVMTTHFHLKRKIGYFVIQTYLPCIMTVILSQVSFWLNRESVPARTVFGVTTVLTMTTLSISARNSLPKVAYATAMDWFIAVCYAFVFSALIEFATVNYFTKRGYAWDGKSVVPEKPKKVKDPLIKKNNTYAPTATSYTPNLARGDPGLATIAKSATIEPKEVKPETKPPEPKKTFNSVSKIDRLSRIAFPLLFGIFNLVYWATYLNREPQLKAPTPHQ
Chain of Gamma-aminobutyric acid (GABA) B receptor 1 (Q6MFX8 whole entry): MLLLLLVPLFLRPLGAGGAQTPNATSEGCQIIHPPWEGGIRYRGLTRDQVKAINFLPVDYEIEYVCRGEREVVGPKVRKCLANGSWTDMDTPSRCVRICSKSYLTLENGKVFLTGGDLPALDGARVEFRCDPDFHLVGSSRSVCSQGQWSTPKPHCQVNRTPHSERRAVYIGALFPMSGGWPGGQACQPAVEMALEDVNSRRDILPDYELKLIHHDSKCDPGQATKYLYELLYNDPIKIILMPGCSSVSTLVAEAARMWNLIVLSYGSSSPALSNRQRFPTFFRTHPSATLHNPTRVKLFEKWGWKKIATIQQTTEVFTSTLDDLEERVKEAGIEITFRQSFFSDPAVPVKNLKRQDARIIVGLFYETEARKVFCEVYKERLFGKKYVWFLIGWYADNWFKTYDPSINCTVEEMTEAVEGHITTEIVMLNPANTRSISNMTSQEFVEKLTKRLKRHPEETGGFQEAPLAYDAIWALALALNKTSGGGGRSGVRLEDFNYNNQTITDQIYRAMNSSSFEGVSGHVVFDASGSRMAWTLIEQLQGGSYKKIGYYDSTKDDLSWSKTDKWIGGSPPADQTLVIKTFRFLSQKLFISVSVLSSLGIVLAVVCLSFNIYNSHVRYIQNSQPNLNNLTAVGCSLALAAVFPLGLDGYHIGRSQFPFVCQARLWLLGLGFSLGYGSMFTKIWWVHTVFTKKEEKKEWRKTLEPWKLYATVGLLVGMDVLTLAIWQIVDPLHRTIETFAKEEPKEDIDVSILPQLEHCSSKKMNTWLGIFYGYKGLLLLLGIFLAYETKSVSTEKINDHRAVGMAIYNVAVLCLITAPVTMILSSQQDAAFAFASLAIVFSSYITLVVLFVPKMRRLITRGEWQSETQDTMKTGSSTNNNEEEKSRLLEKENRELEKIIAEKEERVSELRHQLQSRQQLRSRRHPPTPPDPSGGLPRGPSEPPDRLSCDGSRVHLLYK
Chain of D(2) dopamine receptor (P61169 whole entry): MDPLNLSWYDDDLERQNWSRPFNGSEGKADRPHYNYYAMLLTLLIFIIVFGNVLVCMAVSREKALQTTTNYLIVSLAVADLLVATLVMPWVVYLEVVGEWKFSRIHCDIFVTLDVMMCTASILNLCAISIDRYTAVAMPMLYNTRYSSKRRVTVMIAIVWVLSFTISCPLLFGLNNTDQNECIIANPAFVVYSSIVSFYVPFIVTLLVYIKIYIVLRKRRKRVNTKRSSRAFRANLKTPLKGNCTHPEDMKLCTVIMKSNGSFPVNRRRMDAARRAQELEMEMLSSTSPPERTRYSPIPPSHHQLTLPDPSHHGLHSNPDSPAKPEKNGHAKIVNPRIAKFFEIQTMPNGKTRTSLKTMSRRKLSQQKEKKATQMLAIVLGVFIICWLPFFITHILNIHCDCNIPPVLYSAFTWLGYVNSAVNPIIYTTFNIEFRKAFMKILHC
Chain of Histamine H1 receptor (P31390 whole entry): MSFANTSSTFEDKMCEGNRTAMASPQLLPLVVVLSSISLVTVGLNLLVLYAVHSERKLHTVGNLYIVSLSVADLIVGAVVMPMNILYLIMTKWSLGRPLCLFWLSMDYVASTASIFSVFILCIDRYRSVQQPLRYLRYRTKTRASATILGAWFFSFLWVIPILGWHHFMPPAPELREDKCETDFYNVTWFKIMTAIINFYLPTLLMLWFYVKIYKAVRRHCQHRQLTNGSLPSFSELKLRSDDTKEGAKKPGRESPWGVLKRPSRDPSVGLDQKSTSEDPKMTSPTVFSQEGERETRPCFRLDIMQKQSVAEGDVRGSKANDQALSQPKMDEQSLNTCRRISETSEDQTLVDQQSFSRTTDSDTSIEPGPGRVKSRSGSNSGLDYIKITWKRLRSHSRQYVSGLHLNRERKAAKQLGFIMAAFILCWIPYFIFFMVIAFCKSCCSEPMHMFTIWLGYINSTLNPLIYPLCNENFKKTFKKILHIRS

- pKi [1]: 5.52
- pKi [2]: < 5.00
- pKi [3]: 7.83
- pKi [4]: 5.64
- pKi [5]: < 5.00
- pKi [6]: 5.54
- pKi [7]: < 5.00
- pKi [8]: 6.54
Compound: CCN1CCN(c2cc(-c3ccc(F)cc3)c3c(n2)CCCCCC3)CC1 [AD-5423]
